The test system of this assay is Soybean cv. A3555 dry embryos. Description: Transformation frequency, PEG compared to other osmotic compounds. It counts as cell-based. As to conditions: 1 hour contact, AB30/OriRi. From the text: It also compares TF enhancement of treatments with various PEG species. Soybean cv. […] dry embryos were excised according to the method described in U.S. Patent Application Publication No. 2008/0280361 and contacted for an hour with various amounts of PEG-4000, PEG-6000, PEG-8000, Mannitol, Sorbitol, or Glycerol dissolved in SDW. The embryos were then rinsed 5-6× with SDW and transformed according to the methods described in U.S. Patent Application Publication No. 2009/0138985. The embryos were transformed with a 2T transformation vector having an OriRi replication of origin and contained in AB30 strain of Agrobacterium. The embryos were regenerated on spectinomycin selection medium.

As to `OCC(O)CO` [glycerol, Glycerol], under “10% in SDW”, the “# R0 Plants” value is listed as 4 and the TF is on record as 2.30%. In addition, under “20% in SDW”, the “# R0 Plants” value was found to be 0 and the TF is 0.00%.
Turning to `OC[C@@H](O)[C@@H](O)[C@H](O)[C@H](O)CO` [mannitol, Mannitol], where the note is “10% in SDW”, the “# R0 Plants” value worked out at 5 and the TF is 0.50%.
On to `OC[C@@H](O)[C@@H](O)[C@H](O)[C@@H](O)CO` [sorbitol, Sorbitol], for which, under “10% in SDW”, the “# R0 Plants” value is recorded as 4 and the TF worked out at 0.40%. Under “20% in SDW”, the “# R0 Plants” value turned out to be 3 and the TF is 0.30%.

The record behind these values is US11473094B2, “Methods for improving competency of plant cells” (Monsanto Technology LLC, priority 2010, dated 2022).
